Test results published in patent EP0943615A1, “1,4-DIHYDROPYRIDINE DERIVATIVES” (Nikken Chemicals Company, Limited, priority 1996, dated 1998).

What follows are compounds tested on VJ-300 cells (assay: In vitro test of action suppressing proliferation of cancer cells, combined administration of doxorubicin (colony formation), resistant cells). Conditions: ADM alone or ADM + test compound 1 µg/ml, LD50 of ADM relative to ADM alone in KB cells = 1, 7 days incubation, colony count.
Format: cell-based, Human
Procedure: Human rhinopharynx cancer derived KB cells (i.e., sensitive cells) and their multi-drug resistant clone VJ-300 cells (i.e., resistant cells) were used as the test cells. As the incubation solutions, use was made of 10% fetal calf serum (Flow Laboratories) and Eagle MEM medium (Nissui Seiyaku) containing 0.292 mg/ml of L-glutamine (Flow Laboratories). The tests of the action for overcoming resistance to anti-cancer drugs or action for increasing the effect of the anti-cancer drug with the combined administration of the anti-cancer drug doxorubicin (i.e., adriamycin, ADM) and the test compound were performed as follows:
The test cells were suspended in incubation solutions and adjusted to a cell density of about 200 cells/ml. The cell suspensions were injected in 2 ml amounts into petri dishes and were incubated in a CO2 gas incubator (5% CO2, 95% air) at 37°C for 24 hours. Then, 5 µl of a predetermined concentration of the aqueous ADM solution and a predetermined concentration of a DMSO solution of the test compound were added, then the incubation was continued for a further 7 days. After the end of the incubation, the result was immobilized with methanol, Giemsa stained and measured for the number of colonies per dish. The results were used to prepare a volume-reaction curve. […] The results are shown in Table 8 to Table 10 using the concentration of LD50 of ADM in the ADM alone group by KB cells as the resistance degree 1 and calculating the resistances of the following LD50 concentrations as relative ratios. […]

Compared with `CCOC(=O)C1=C(c2ccc(-n3c(C)nc4cnccc43)cc2)NC(C)=C(C(=O)OCCCCCc2cccnc2)C1CCc1ccccc1` (stereo not shown) [Compound 18, 6-methyl-2-[4-(2-methylimidazo[4,5-c]pyridin-1-yl)phenyl]-4-(2-phenylethyl)-1,4-dihydropyridin-3,5-dicarboxylate 3-ethylester, 5-[5-(3-pyridyl)pentyl]ester], `CCOC(=O)C1=C(c2ccc(-n3c(C)nc4cnccc43)cc2)NC(C)=C(C(=O)OCCCc2cccnc2)C1Cc1ccccc1` (stereo not shown) [Compound 12, 4-benzyl-6-methyl-2-[4-(2-methylimidazo[4,5-c]pyridin-1-yl)phenyl]-1,4-dihydropyridin-3,5-dicarboxylate 3-ethylester, 5-[3-(3-pyridyl)propyl]ester] is higher in “Degree of resistance for ADM VJ-300” value: 1.4 for the first, 6.5 for the second.

Going from `CCOC(=O)C1=C(c2ccc(-n3cnc4ccccc43)cc2)NC(C)=C(C(=O)OCCCC(=O)c2cccnc2)C1C=C1CCCCC1` (stereo not shown) [Compound 48, 4-cyclohexylidenemethyl-6-methyl-2-[4-(1-benzimidazolyl)phenyl]-1,4-dihydropyridin-3,5-dicarboxylate 3-ethylester, 5-(3-nicotinoylpropyl)ester] to `CCOC(=O)C1=C(c2ccc(-n3c(C)nc4cnccc43)cc2)NC(C)=C(C(=O)OC/C=C/c2cccnc2)C1C=C1CCCCC1` (stereo not shown) [Compound 29, 4-cyclohexylidenemethyl-6-methyl-2-[4-(2-methylimidazo[4,5-c]pyridin-1-yl)phenyl]-1,4-dihydropyridin-3,5-dicarboxylate 3-ethylester, 5-[(E)-3-(3-pyridyl)-2-propenyl]ester], the “Degree of resistance for ADM VJ-300” value falls from 1.7 to 1.2.

Going from `CCOC(=O)C1=C(c2ccc(-n3c(C)nc4cnccc43)cc2)NC(C)=C(C(=O)OCCCc2cccnc2)C1/C=C/c1ccccc1` (stereo not shown) [Compound 14, 6-methyl-2-[4-(2-methylimidazo[4,5-c]pyridin-1-yl)phenyl]-4-[(E)-2-phenylethenyl]-1,4-dihydropyridin-3,5-dicarboxylate 3-ethylester, 5-[3-(3-pyridyl)propyl]ester] to `CCOC(=O)C1=C(c2ccc(-n3c(C)nc4cnccc43)cc2)NC(C)=C(C(=O)OCCCCCc2cccnc2)C1/C=C/c1ccccc1` (stereo not shown) [Compound 21, 6-methyl-2-[4-(2-methylimidazo[4,5-c]pyridin-1-yl)phenyl]-4-[(E)-2-phenylethenyl]-1,4-dihydropyridin-3,5-dicarboxylate 3-ethylester, 5-[5-(3-pyridyl)pentyl]ester], the “Degree of resistance for ADM VJ-300” value falls from 1.3 to 1.1.

Going from `CCOC(=O)C1=C(c2ccc(-n3c(C)nc4cnccc43)cc2)NC(C)=C(C(=O)OCCCc2cccnc2)C1CC(C)C` (stereo not shown) [Compound 10, 6-methyl-2-[4-(2-methylimidazo[4,5-c]pyridin-1-yl)phenyl]-4-(2-methylpropyl)-1,4-dihdropyridin-3,5-dicarboxylate 3-ethylester, 5-[3-(3-pyridyl)propyl]ester] to `CCOC(=O)C1=C(c2ccc(-n3c(C)nc4cnccc43)cc2)NC(C)=C(C(=O)OCCCc2cccnc2)C1C=C(C)C` (stereo not shown) [Compound 11, 6-methyl-2-[4-(2-methylimidazo[4,5-c]pyridin-1-yl)phenyl]-4-(2-methyl-1-propenyl)-1,4-dihydropyridin-3,5-dicarboxylate 3-ethylester, 5-[3-(3-pyridyl)propyl]ester], the “Degree of resistance for ADM VJ-300” value rises from 1.4 to 3.2.

Going from `CCOC(=O)C1=C(c2ccc(-n3c(C)nc4cnccc43)cc2)NC(C)=C(C(=O)OC/C=C/c2cccnc2)C1CCc1ccsc1` (stereo not shown) [Compound 26, 6-methyl-2-[4-(2-methylimidazo[4,5-c]pyridin-1-yl)phenyl]-4-[2-(3-thienyl)ethyl)-1,4-dihydropyridin-3,5-dicarboxylate 3-ethylester, 5-[(E)-3-(3-pyridyl)-2-propenyl]ester] to `CCOC(=O)C1=C(c2ccc(-n3c(C)nc4cnccc43)cc2)NC(C)=C(C(=O)OC/C=C/c2cccnc2)C1/C=C/c1ccccc1` (stereo not shown) [Compound 25, 6-methyl-2-[4-(2-methylimidazo[4,5-c]pyridin-1-yl)phenyl]-4-[(E)-2-phenylethenyl]-1,4-dihydropyridin-3,5-dicarboxylate 3-ethylester, 5-[(E)-3-(3-pyridyl)-2-propenyl]ester], the “Degree of resistance for ADM VJ-300” value falls from 1.8 to 1.1.

First: CCOC(=O)C1=C(c2ccc(-n3c(C)nc4cnccc43)cc2)NC(C)=C(C(=O)OC/C=C(/c2cccnc2)c2cccs2)C1CCc1ccccc1 (stereo not shown) [Compound 20, 6-methyl-2-[4-(2-methylimidazo[4,5-c]pyridin-1-yl)phenyl]-4-(2-phenylethyl)-1,4-dihydropyridin-3,5-dicarboxylate 3-ethylester, 5-[(Z]-3-(3-pyridyl)-3-(2-thienyl)-2-propenyl]ester]
Second: CCCCCC1C(C(=O)OC/C=C(/c2cccnc2)c2cccs2)=C(C)NC(c2ccc(-n3c(C)nc4cnccc43)cc2)=C1C(=O)OCC (stereo not shown) [Compound 19, 6-methyl-2-[4-(2-methylimidazo[4,5-c]pyridin-1-yl)phenyl]-4-pentyl-1,4-dihydropyridin-3,5-dicarboxylate 3-ethylester, 5-[(Z)-3-(3-pyridyl)-3-(2-thienyl)-2-propenyl]ester]
The “Degree of resistance for ADM VJ-300” value of the first is higher: 1.6 for the first, 1.2 for the second.

Compared with `CCOC(=O)C1=C(c2ccc(N3CCOCC3)cc2)NC(C)=C(C(=O)OC/C=C/c2cccnc2)C1/C=C/c1ccccc1` (stereo not shown) [Compound 34, 6-methyl-2-(4-morpholinophenyl)-4-[(E)-2-phenylethenyl]-1,4-dihydropyridin-3,5-dicarboxylate 3-ethylester, 5-[(E)-3-(3-pyridyl)-2-propenyl]ester], `CCOC(=O)C1=C(c2ccc(SC)cc2)NC(C)=C(C(=O)OC/C=C/c2cccnc2)C1/C=C/c1ccccc1` (stereo not shown) [Compound 31, 6-methyl-2-(4-methylthiophenyl)-1,4-dihydropyridin-4-[(E)-2-phenylethenyl]-3,5-dicarboxylate 3-ethylester, 5-[(E)-3-(3-pyridyl)-2-propenyl]ester] is lower in “Degree of resistance for ADM VJ-300” value: 3.0 for the first, 2.6 for the second.

Going from `CCOC(=O)C1=C(c2ccc(-n3c(C)nc4ncccc43)cc2)NC(C)=C(C(=O)OC/C=C/c2cccnc2)C1/C=C/c1ccccc1Cl` (stereo not shown) [Compound 22, 4-[(E)-2-(2-chlorophenyl]ethenyl]-6-methyl-2-[4-(2-methylimidazo[4,5-b]pyridin-1-yl)phenyl]-1,4-dihydropyridin-3,5-dicarboxylate 3-ethylester, 5-[(E)-3-(3-pyridyl)-2-propenyl]ester] to `COC(=O)C1=C(c2ccc(-n3c(C)nc4cnccc43)cc2)NC(C)=C(C(=O)OC/C=C/c2cccnc2)C1/C=C/c1ccccc1` (stereo not shown) [Compound 42, 6-methyl-2-[4-(2-methylimidazo[4,5-c]pyridin-1-yl)phenyl]-4-[(E)-2-phenylethenyl]-1,4-dihydropyridin-3,5-dicarboxylate 3-methylester, 5-[(E)-3-(3-pyridyl)-2-propenyl]ester], the “Degree of resistance for ADM VJ-300” value rises from 1.7 to 2.1.

First: CCCCCC1C(C(=O)OC/C=C/c2cccnc2)=C(C)NC(c2cccc(-n3ccnc3)c2)=C1C(=O)OCC (stereo not shown) [Compound 37, 2-[3-(1-imidazolyl)phenyl]-6-methyl-4-pentyl-1,4-dihydropyridin-3,5-dicarboxylate 3-ethylester, 5-[(E)-3-(3-pyridyl)-2-propenyl]ester]
Second: CCCCCC1C(C(=O)OCCCc2cccnc2)=C(C)NC(c2ccc(-n3ccnc3)cc2)=C1C(=O)OCC (stereo not shown) [Compound 44, 2-[4-(1-imidazolyl)phenyl]-6-methyl-4-pentyl-1,4-dihydropyridin-3,5-dicarboxylate 3-ethylester, 5-[3-(3-pyridyl)propyl]-ester]
The “Degree of resistance for ADM VJ-300” value of the first is higher: 2.5 for the first, 1.4 for the second.

Compared with `CCCCCC1C(C(=O)OCCCCCc2cccnc2)=C(C)NC(c2ccc(-n3c(C)nc4cnccc43)cc2)=C1C(=O)OCC` (stereo not shown) [Compound 17, 6-methyl-2-[4-(2-methylimidazo[4,5-c]pyridin-1-yl)phenyl]-4-pentyl-1,4-dihydropyridin-3,5-dicarboxylate 3-ethylester, 5-[5-(3-pyridyl)pentyl]ester], `CCOC(=O)C1=C(c2ccc(-n3c(C)nc4cnccc43)cc2)NC(C)=C(C(=O)OCCCC(=O)c2cccnc2)C1CCCC1CCCCC1` (stereo not shown) [Compound 45, 4-(3-cyclohexylpropyl)-6-methyl-2-[4-(2-methylimidazo[4,5-c]pyridin-1-yl)phenyl]-1,4-dihydropyridin-3,5-dicarboxylate 3-ethylester, 5-(3-nicotinoylpropyl)ester] is higher in “Degree of resistance for ADM VJ-300” value: 1.6 for the first, 2.6 for the second.

`COC(=O)C1=C(c2ccc(-n3ccnc3)cc2)NC(C)=C(C(=O)OC/C=C/c2cccnc2)C1/C=C/c1ccccc1` (stereo not shown) [Compound 39, 2-[4-(1-imidazolyl)phenyl]-6-methyl-1,4-dihydropyridin-4-[(E)-2-phenylethenyl]-3,5-dicarboxylate 3-methylester, 5-[(E)-3-(3-pyridyl)-2-propenyl]ester] was tested, and the “Degree of resistance for ADM VJ-300” value was 1.2.

For `COc1cccc2c1C(=O)c1c(O)c3c(c(O)c1C2=O)C[C@@](O)(C(=O)CO)C[C@@H]3O[C@H]1C[C@H](N)[C@H](O)[C@H](C)O1` [ADM, doxorubicin, reference compound], the “Degree of resistance for ADM VJ-300” value was 26 - 51.
